Laboratory results published in patent US12077537B2 (Gilead Sciences, Inc., priority 2020, dated 2024).

What follows are compounds tested on HIV-IIIb (assay: Antiviral assay in MT4 cells). Details: Human immunodeficiency virus 1, MT4, 120 h; MT-4 cells mixed with HIV-IIIb at m.o.i. 0.003; 5 days at 37° C.; CellTiter-Glo luminescence; 50% decrease in signal, a measure of HIV-1 replication.
Format: cell-based
Method in brief: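 MT-4 cells were infected with HIV-IIIb at m.o.i. 0.003 for 1 hour, then added to 3-fold serially diluted compound (10 concentrations, quadruplicate) in medium with 10% FBS. After 5 days at 37° C, cell viability was read by CellTiter-Glo chemiluminescence.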
In the case of `NC(=O)c1cc(-c2cc3sc(N4CCn5cnnc5C4)nc3nc2[C@H](Cc2cc(F)cc(F)c2)NC(=O)Cn2nc(C(F)(F)F)c3c2C(F)(F)[C@@H]2C[C@H]32)ccc1F` [Compound 31, 5-(5-((S)-1-(2-((3bS,4aR)-5,5-difluoro-3-(trifluoromethyl)-3b,4,4a,5-tetrahydro-1H-cyclopropa[3,4]cyclopenta[1,2-c]pyrazol-1-yl)acetamido)-2-(3,5-difluorophenyl)ethyl)-2-(5,6-dihydro-[1,2,4]triazolo[4,3-a]pyrazin-7(8H)-yl)thiazolo[4,5-b]pyridin-6-yl)-2-fluorobenzamide], the EC50 is reported as 466 nM. With `NC(=O)c1cc(-c2cc3sc(N4CCN(c5ccncc5)CC4)nc3nc2[C@H](Cc2cc(F)cc(F)c2)NC(=O)Cn2nc(C(F)(F)F)c3c2C(F)(F)[C@@H]2C[C@H]32)ccc1F` [Compound 26, 5-(5-((S)-1-(2-((3bS,4aR)-5,5-difluoro-3-(trifluoromethyl)-3b,4,4a,5-tetrahydro-1H-cyclopropa[3,4]cyclopenta[1,2-c]pyrazol-1-yl)acetamido)-2-(3,5-difluorophenyl)ethyl)-2-(4-(pyridin-4-yl)piperazin-1-yl)thiazolo[4,5-b]pyridin-6-yl)-2-fluorobenzamide] the EC50 was 114 nM. Compound `NC(=O)c1cc(-c2cc3sc(C#Cc4ccc(-c5c[nH]c([C@@H]6CCCN6)n5)cc4)nc3nc2[C@H](Cc2cc(F)cc(F)c2)NC(=O)Cn2nc(C(F)F)c3c2C(F)(F)CCC3(F)F)ccc1F` [Compound 138, 5-(5-((S)-1-(2-(3-(difluoromethyl)-4,4,7,7-tetrafluoro-4,5,6,7-tetrahydro-1H-indazol-1-yl)acetamido)-2-(3,5-difluorophenyl)ethyl)-2-((4-(2-((S)-pyrrolidin-2-yl)-1H-imidazol-4-yl)phenyl)ethynyl)thiazolo[4,5-b]pyridin-6-yl)-2-fluorobenzamide] has an EC50 of 112 nM. `Cn1nc(NS(C)(=O)=O)c2cccc(-c3cc4sc(NCC(C)(C)O)nc4nc3[C@H](Cc3cc(F)cc(F)c3)NC(=O)Cn3nc(C(F)F)c4c3C(F)(F)CCC4(F)F)c21` [Compound 56, (S)-2-(3-(difluoromethyl)-4,4,7,7-tetrafluoro-4,5,6,7-tetrahydro-1H-indazol-1-yl)-N-(2-(3,5-difluorophenyl)-1-(2-((2-hydroxy-2-methylpropyl)amino)-6-(1-methyl-3-(methylsulfonamido)-1H-indazol-7-yl)thiazolo[4,5-b]pyridin-5-yl)ethyl)acetamide] gave an EC50 of 55.8 nM. `Cn1nc(N)c2cccc(-c3cc4sc(NCC(C)(C)O)nc4nc3[C@H](Cc3cc(F)cc(F)c3)NC(=O)Cn3nc(C(F)F)c4c3C(F)(F)[C@@H]3C[C@H]43)c21` [Compound 57, N—((S)-1-(6-(3-amino-1-methyl-1H-indazol-7-yl)-2-((2-hydroxy-2-methylpropyl)amino)thiazolo[4,5-b]pyridin-5-yl)-2-(3,5-difluorophenyl)ethyl)-2-((3bS,4aR)-3-(difluoromethyl)-5,5-difluoro-3b,4,4a,5-tetrahydro-1H-cyclopropa[3,4]cyclopenta[1,2-c]pyrazol-1-yl)acetamide] was tested, and the EC50 was 13 nM. `Cn1nc(NS(C)(=O)=O)c2cccc(-c3cc4sc(NCC(C)(C)O)nc4nc3[C@H](Cc3cc(F)cc(F)c3)NC(=O)Cn3nc(C(F)F)c4c3C(F)(F)[C@@H]3C[C@H]43)c21` [Compound 55, 2-((3bS,4aR)-3-(difluoromethyl)-5,5-difluoro-3b,4,4a,5-tetrahydro-1H-cyclopropa[3,4]cyclopenta[1,2-c]pyrazol-1-yl)-N—((S)-2-(3,5-difluorophenyl)-1-(2-((2-hydroxy-2-methylpropyl)amino)-6-(1-methyl-3-(methylsulfonamido)-1H-indazol-7-yl)thiazolo[4,5-b]pyridin-5-yl)ethyl)acetamide] gave an EC50 of 13.5 nM. Work on `Cn1nc(NS(C)(=O)=O)c2c(Cl)ccc(-c3cc4c(nc3[C@H](Cc3cc(F)cc(F)c3)NC(=O)Cn3nc(C(F)F)c5c3C(F)(F)[C@@H]3C[C@H]53)NCC(=O)N4)c21` [Example 108, N—((S)-1-(7-(4-chloro-1-methyl-3-(methylsulfonamido)-1H-indazol-7-yl)-2-oxo-1,2,3,4-tetrahydropyrido[2,3-b]pyrazin-6-yl)-2-(3,5-difluorophenyl)ethyl)-2-((3bS,4aR)-3-(difluoromethyl)-5,5-difluoro-3b,4,4a,5-tetrahydro-1H-cyclopropa[3,4]cyclopenta[1,2-c]pyrazol-1-yl)acetamide] yielded an EC50 of 34.5 nM. For `Cn1nc(NS(C)(=O)=O)c2c(Cl)ccc(-c3cc4[nH]c(C5CC5)nc4nc3[C@H](Cc3cc(F)cc(F)c3)NC(=O)Cn3nc(C(F)(F)F)c4c3C(F)(F)[C@@H]3C[C@H]43)c21` [Example 96, N—((S)-1-(6-(4-chloro-1-methyl-3-(methylsulfonamido)-1H-indazol-7-yl)-2-cyclopropyl-1H-imidazo[4,5-b]pyridin-5-yl)-2-(3,5-difluorophenyl)ethyl)-2-((3bS,4aR)-5,5-difluoro-3-(trifluoromethyl)-3b,4,4a,5-tetrahydro-1H-cyclopropa[3,4]cyclopenta[1,2-c]pyrazol-1-yl)acetamide], the EC50 was 3.9 nM. With `Cn1nc(N)c2cccc(-c3cc4sc(NCC(C)(C)O)nc4nc3[C@H](Cc3cc(F)cc(F)c3)NC(=O)Cn3nc(C(F)F)c4c3C(F)(F)CCC4(F)F)c21` [Compound 60, (S)—N-(1-(6-(3-amino-1-methyl-1H-indazol-7-yl)-2-((2-hydroxy-2-methylpropyl)amino)thiazolo[4,5-b]pyridin-5-yl)-2-(3,5-difluorophenyl)ethyl)-2-(3-(difluoromethyl)-4,4,7,7-tetrafluoro-4,5,6,7-tetrahydro-1H-indazol-1-yl)acetamide] the EC50 was 60 nM. `O=C(Cn1nc(C(F)(F)F)c2c1C(F)(F)[C@@H]1C[C@H]21)N[C@@H](Cc1cc(F)cc(F)c1)c1nc2nc(-c3ccc4c(c3)C(=O)NC4)sc2cc1-c1ccc2c(c1)C(=O)NC2` [Compound 143, N—((S)-1-(2,6-bis(3-oxoisoindolin-5-yl)thiazolo[4,5-b]pyridin-5-yl)-2-(3,5-difluorophenyl)ethyl)-2-((3bS,4aR)-5,5-difluoro-3-(trifluoromethyl)-3b,4,4a,5-tetrahydro-1H-cyclopropa[3,4]cyclopenta[1,2-c]pyrazol-1-yl)acetamide] was tested, and the EC50 was 15.5 nM. `Cc1c(-c2cc3[nH]c(-c4ccccc4)cc3nc2[C@H](Cc2cc(F)cc(F)c2)NC(=O)Cn2nc(C(F)(F)F)c3c2C(F)(F)[C@@H]2C[C@H]32)ccc2n[nH]c(=O)n12` [Example 120, 2-((3bS,4aR)-5,5-difluoro-3-(trifluoromethyl)-3b,4,4a,5-tetrahydro-1H-cyclopropa[3,4]cyclopenta[1,2-c]pyrazol-1-yl)-N—((S)-2-(3,5-difluorophenyl)-1-(6-(5-methyl-3-oxo-2,3-dihydro-[1,2,4]triazolo[4,3-a]pyridin-6-yl)-2-phenyl-1H-pyrrolo[3,2-b]pyridin-5-yl)ethyl)acetamide] gave an EC50 of 294 nM. In the case of `NC(=O)c1cc(-c2cc3sc(NC4CCOC4)nc3nc2[C@H](Cc2cc(F)cc(F)c2)NC(=O)Cn2nc(C(F)F)c3c2C(F)(F)CCC3(F)F)ccc1F` (stereo partly drawn) [Compound 9, 5-(5-((S)-1-(2-(3-(difluoromethyl)-4,4,7,7-tetrafluoro-4,5,6,7-tetrahydro-1H-indazol-1-yl)acetamido)-2-(3,5-difluorophenyl)ethyl)-2-((tetrahydrofuran-3-yl)amino)thiazolo[4,5-b]pyridin-6-yl)-2-fluorobenzamide], the EC50 is reported as 266 nM. For `Cc1cc(Nc2nc3nc(C(Cc4cc(F)cc(F)c4)NC(=O)Cn4nc(C(F)F)c5c4C(F)(F)CCC5(F)F)c(-c4ccc(F)c(C(N)=O)c4)cc3s2)[nH]n1` (stereo not shown) [Compound 19, 5-(5-(1-(2-(3-(difluoromethyl)-4,4,7,7-tetrafluoro-4,5,6,7-tetrahydro-1H-indazol-1-yl)acetamido)-2-(3,5-difluorophenyl)ethyl)-2-((3-methyl-1H-pyrazol-5-yl)amino)thiazolo[4,5-b]pyridin-6-yl)-2-fluorobenzamide], the EC50 was 1050 nM. For `Cn1nc(NS(C)(=O)=O)c2cccc(-c3cc4sc(N5CCC6(CC5)CNC6)nc4nc3[C@H](Cc3cc(F)cc(F)c3)NC(=O)Cn3nc(C(F)(F)F)c4c3C(F)(F)[C@@H]3C[C@H]43)c21` [Example 90, 2-((3bS,4aR)-5,5-difluoro-3-(trifluoromethyl)-3b,4,4a,5-tetrahydro-1H-cyclopropa[3,4]cyclopenta[1,2-c]pyrazol-1-yl)-N—((S)-2-(3,5-difluorophenyl)-1-(6-(1-methyl-3-(methylsulfonamido)-1H-indazol-7-yl)-2-(2,7-diazaspiro[3.5]nonan-7-yl)thiazolo[4,5-b]pyridin-5-yl)ethyl)acetamide], the EC50 was 431 nM. `CC1(O)CN(c2nc3nc([C@H](Cc4cc(F)cc(F)c4)NC(=O)Cn4nc(C(F)F)c5c4C(F)(F)CCC5(F)F)c(-c4ccc(F)c(C(N)=O)c4)cc3s2)C1` [Compound 11, (S)-5-(5-(1-(2-(3-(difluoromethyl)-4,4,7,7-tetrafluoro-4,5,6,7-tetrahydro-1H-indazol-1-yl)acetamido)-2-(3,5-difluorophenyl)ethyl)-2-(3-hydroxy-3-methylazetidin-1-yl)thiazolo[4,5-b]pyridin-6-yl)-2-fluorobenzamide] showed an EC50 of 162 nM. `O=C(Cn1nc(C(F)F)c2c1C1CC1CC2)N[C@@H](Cc1cc(F)cc(F)c1)c1nc2nc(N3CCN(c4ccc(-c5ncc[nH]5)cc4)CC3)sc2cc1-c1ccc2c(c1)C(=O)NC2` (stereo partly drawn) [Compound 35, N—((S)-1-(2-(4-(4-(1H-imidazol-2-yl)phenyl)piperazin-1-yl)-6-(3-oxoisoindolin-5-yl)thiazolo[4,5-b]pyridin-5-yl)-2-(3,5-difluorophenyl)ethyl)-2-(3-(difluoromethyl)-5,5a,6,6a-tetrahydrocyclopropa[g]indazol-1(4H)-yl)acetamide] showed an EC50 of 31.9 nM.
